Calls of active or inactive are those of the source.
Key:
[1] = biological target: T1, Carboxy-terminal domain RNA polymerase II polypeptide A small phosphatase 1 (Homo sapiens, UniProt Q9GZU7); test: CTDSP1 inhibitors, concentration-response, biochemical, absorbance readout, ultra-high-throughput screen actives (AID 540297); assay type: functional
T1 sequence (Q9GZU7 whole entry): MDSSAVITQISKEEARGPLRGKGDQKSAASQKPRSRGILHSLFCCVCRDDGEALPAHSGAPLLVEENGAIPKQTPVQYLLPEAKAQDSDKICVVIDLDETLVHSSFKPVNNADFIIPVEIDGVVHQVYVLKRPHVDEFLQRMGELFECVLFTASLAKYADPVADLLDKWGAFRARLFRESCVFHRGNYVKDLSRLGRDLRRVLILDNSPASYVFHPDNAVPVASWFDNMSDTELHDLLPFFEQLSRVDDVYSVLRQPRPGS

[2] = tested on: Streptococcus sp. 'group A'; test: Streptococcus pyogenes SK(-)GAS viability under kanamycin – luminescence, BacTiterGlo, confirmation, counter-screen for streptokinase expression inhibitor project, dose response (AID 1900); assay type: functional, organism-based
Streptococcus = test: GAS UMAA2166 growth inhibition – luminescence, BacTiterGlo, counter-screen for streptokinase expression inhibitor project, dose response (AID 1915); assay type: functional, organism-based;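 also: potency for reduction of bacterial viability or growth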
Streptokinase A = biological target: T2, Streptokinase A (Streptococcus pyogenes serotype M1, UniProt P10520); test: viability-normalized secreted streptokinase activity reduction – plasminogen activation absorbance, OD405, dose response (AID 1914); assay type: functional, Streptococcus pyogenes M1 GAS;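 also: secreted streptokinase activity via plasminogen activation per viability signal from cell pellet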
T2 sequence (P10520 whole entry): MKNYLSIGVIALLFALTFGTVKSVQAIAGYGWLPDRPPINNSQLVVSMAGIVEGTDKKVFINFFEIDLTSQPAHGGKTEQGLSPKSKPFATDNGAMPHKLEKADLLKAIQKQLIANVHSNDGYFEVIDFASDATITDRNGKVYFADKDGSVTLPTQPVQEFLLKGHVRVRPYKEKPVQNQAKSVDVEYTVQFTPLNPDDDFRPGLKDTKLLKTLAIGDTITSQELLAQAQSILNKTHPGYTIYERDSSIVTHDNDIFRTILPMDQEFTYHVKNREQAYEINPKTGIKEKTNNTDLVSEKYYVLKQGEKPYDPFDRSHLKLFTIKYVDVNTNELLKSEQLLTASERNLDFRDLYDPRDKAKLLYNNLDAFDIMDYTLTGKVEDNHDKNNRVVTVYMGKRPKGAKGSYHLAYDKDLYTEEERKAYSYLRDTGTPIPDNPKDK

[3] = fluconazole-exposed Candida albicans growth modulators – fluorescence, retest, confirmation (AID 2467); assay type: functional, cell-based
[4] = NIH-3T3 fibroblast cytotoxicity, dose response, cytotoxicity control, cell-based, fluorescence, Alamar Blue, secondary assay (AID 2327); assay type: functional;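 also: NIH-3T3 mouse fibroblasts cultured with fluconazole at 8 µg/mL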
[5] = biological target: T3, High affinity choline transporter 1 (Homo sapiens, UniProt Q9GZV3); test: human choline transporter blockers, potency – cell-based, 5-point CRC, membrane potential dye, dose response (AID 504840); assay type: functional
T3 sequence (Q9GZV3 whole entry): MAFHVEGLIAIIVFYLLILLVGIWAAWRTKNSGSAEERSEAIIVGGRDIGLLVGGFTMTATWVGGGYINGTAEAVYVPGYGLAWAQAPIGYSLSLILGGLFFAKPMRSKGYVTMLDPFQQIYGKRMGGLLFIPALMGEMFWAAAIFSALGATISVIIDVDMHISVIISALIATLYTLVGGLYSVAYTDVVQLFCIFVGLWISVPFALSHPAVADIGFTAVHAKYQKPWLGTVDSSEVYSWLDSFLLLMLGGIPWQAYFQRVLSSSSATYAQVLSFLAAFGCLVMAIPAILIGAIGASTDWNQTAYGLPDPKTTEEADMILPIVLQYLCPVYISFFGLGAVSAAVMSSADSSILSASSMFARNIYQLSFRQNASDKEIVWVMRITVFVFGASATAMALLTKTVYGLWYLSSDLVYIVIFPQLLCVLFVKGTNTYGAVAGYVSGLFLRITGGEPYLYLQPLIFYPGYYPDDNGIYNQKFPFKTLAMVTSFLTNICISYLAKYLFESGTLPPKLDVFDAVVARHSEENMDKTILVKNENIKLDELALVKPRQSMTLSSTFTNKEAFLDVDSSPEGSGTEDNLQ

Cytochrome P450 3A4 = Cytochrome P450 3A4 (Homo sapiens, UniProt P08684); conditions: Potency;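 also: confirmatory qHTS run detecting inhibitors and substrates of CYP3A4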
Sequence of Cytochrome P450 3A4 (P08684 whole entry): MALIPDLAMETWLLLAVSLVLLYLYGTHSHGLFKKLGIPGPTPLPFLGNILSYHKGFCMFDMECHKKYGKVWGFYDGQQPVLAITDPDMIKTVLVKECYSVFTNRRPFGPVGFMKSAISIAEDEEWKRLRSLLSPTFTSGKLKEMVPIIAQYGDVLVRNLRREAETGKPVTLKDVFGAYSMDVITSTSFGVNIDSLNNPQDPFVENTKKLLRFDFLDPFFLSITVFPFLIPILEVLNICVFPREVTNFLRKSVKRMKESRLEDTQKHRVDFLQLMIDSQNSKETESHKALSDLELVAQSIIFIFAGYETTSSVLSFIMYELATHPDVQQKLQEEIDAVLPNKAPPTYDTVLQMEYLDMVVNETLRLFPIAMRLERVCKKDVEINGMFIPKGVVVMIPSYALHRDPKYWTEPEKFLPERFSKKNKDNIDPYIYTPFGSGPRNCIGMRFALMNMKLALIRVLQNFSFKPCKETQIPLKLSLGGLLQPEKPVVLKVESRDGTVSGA

[6] = OVCAR8 cell viability loss – plate reader, dry powder samples, PAX8 project, dose response (AID 743197); assay type: functional, cell-based; conditions: OVCAR-8
[7] = OVCAR-3 cell viability loss – plate reader, dry powder samples, PAX8 inhibitor project, dose response (AID 743044); assay type: functional, cell-based
Paired box protein Pax-8 = Paired box protein Pax-8 (Homo sapiens, UniProt Q06710); test: PAX8 transcriptional activity inhibition in RMG-I – RMG-I cells, luciferase, cherry-pick, dose response (AID 687027); assay type: functional, cell-based;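 also: luciferase reporter driven by Pax8 target thyroperoxidase promoter measured by SteadyGlo luminescence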
Sequence of Paired box protein Pax-8 (Q06710 whole entry): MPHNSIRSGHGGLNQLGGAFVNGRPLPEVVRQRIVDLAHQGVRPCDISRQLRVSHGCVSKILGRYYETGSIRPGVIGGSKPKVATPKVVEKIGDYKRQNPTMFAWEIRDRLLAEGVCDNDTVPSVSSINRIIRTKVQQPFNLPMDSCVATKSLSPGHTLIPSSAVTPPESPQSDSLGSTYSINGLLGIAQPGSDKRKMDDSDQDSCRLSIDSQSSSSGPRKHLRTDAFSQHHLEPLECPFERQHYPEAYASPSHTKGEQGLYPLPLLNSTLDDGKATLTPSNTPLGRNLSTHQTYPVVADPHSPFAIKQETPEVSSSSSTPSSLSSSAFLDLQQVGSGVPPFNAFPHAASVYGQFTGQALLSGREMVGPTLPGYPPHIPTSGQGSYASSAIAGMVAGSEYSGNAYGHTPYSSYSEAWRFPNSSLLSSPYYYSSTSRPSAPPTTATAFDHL

[8] = THP-1 cell cytotoxicity, dose response, cytotoxicity control for non-replicating M. tuberculosis project (AID 489025); assay type: functional
H9c2 = test: cells; assay type: functional, cell-based; conditions: Rattus norvegicus, H9c2, Myocardium;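 also: confirmatory concentration-response retest of ultra-high-throughput screening hits for modulation of myocardial damage; cell death induced by hydrogen peroxide oxidative stress; compound pretreatment for 60 min then peroxide exposure for 2 h; potency is for protecting the cells against peroxide damage rather than for killing them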
cells = assay type: functional

C/C(=N\NC(=O)c1cc(Br)ccc1O)c1cccc(NC(=O)c2ccccc2F)c1
IC50 [1]: 2.94 µM (active)
EC50 [2]: 3.04 µM (active)
EC50 (Streptococcus): 74 µM (active)
EC50 (Streptokinase A): > 150 µM (not active)

O=C(O)CCCCCN1C(=O)/C(=C/c2nc3ccccc3[nH]2)SC1=S
IC50 [1]: 6.09 µM (active)
EC50 [3]: 5.71 µM (active)
EC50 [4]: > 150 µM (inactive)

CCN(CC)CCCn1c2c(c(SCC(=O)N3CCc4ccccc43)nc1=O)CCC2
IC50 [5]: 10.9 µM (active)

O=C(O)c1sccc1S(=O)(=O)Nc1ccc(Cl)cc1
AC50 (Cytochrome P450 3A4): 7.94 µM (inconclusive)

CC(=O)NNc1ccccc1
AC50 (Cytochrome P450 3A4): 31.6 µM (inconclusive)

C[C@@H]1CN([C@H](C)CO)C(=O)c2cccc(NC(=O)Nc3cccc4ccccc34)c2O[C@@H]1CN(C)S(=O)(=O)c1ccc(Cl)cc1
AC50 [6]: 56.3 µM (active)
AC50 [7]: 43.3 µM (active)
AC50 (Paired box protein Pax-8): 5.69 µM (active)

Cc1ccc([N+](=O)[O-])cc1N
AC50 (Cytochrome P450 3A4): 31.6 µM (inconclusive)

C[C@@H]1CN([C@H](C)CO)C(=O)c2cc(NC(=O)Nc3ccc(C(F)(F)F)cc3)ccc2O[C@@H](C)CCCCO[C@H]1CN(C)S(=O)(=O)c1ccccc1
AC50 [7]: 31.8 µM (active)
AC50 (Paired box protein Pax-8): 2.23 µM (active)

CCC(Oc1ccc2c(c1)C(=O)CC(C)(C)O2)C(=O)NCCN1CCCCCC1 (stereo not drawn)
IC50 [5]: 15.8 µM (active)

CCS(=O)(=O)C1=NN2C(=N)/C(=C\c3ccc(OS(=O)(=O)c4ccccc4)cc3)C(=O)N=C2S1
IC50 [5]: 6.95 µM (active)

COc1ccc2c3c([nH]c2c1)[C@H](CO)N(C(=O)Nc1cccc(F)c1)CC31CCN(S(=O)(=O)c2cccc(C)c2)CC1
AC50 [6]: > 70 µM (inactive)
AC50 [7]: 42.4 µM (active)
AC50 (Paired box protein Pax-8): 5.2 µM (active)

O=C(CSc1nnc(COc2ccccc2)n1Cc1ccco1)NCc1ccco1
IC50 [1]: 7.21 µM (active)

COC(=O)[C@@H]1C[C@@]2(O)[C@@H](O)[C@@H](O)[C@@H](O)C[C@H]2N1Cc1cc(F)ccc1F
AC50 (Cytochrome P450 3A4): 25.1 µM (inconclusive)

CC(/C=C1\SC(=S)N(NC(=O)c2ccncc2)C1=O)=C\c1ccccc1
IC50 [5]: 14.5 µM (active)

Cc1ccc(C(=O)N/N=C\c2ccc(-c3ccc(Cl)cc3)o2)cn1
CC50 [8]: 30 µM (active)
IC50 (H9c2): > 79 µM (inactive)
IC50 (cells): > 50 µM (active)

COc1c(CC=C(C)C)c2c(c3oc(=O)c(-c4ccc(O)cc4)c(O)c13)C=CC(C)(C)O2 [SCANDENIN]
AC50 (Cytochrome P450 3A4): 20 µM (inconclusive)
